This test deals with HIV-1LAI envelope gp120 (Human immunodeficiency virus type 1 group M subtype B, UniProt P03377). Format: binding. The conditions noted are these: for Binding Results For Window Length (counts bound-background), 9: 9-mer starting at the first residue of the printed sequence; for Binding Results For Window Length (counts bound-background), 12: 12-mer starting at the first residue of the printed sequence; for Binding Results For Window Length (counts bound-background), 15: 15-mer starting at the first residue of the printed sequence; for number of radioactive decays (counts) counted: human CD4 21-mer scan, empty control 2075; for Counts per 20′ Average-background: CCR5 18-mer scan, radiolabeled HIV-1LAI gp120.

[1] abbreviates: STRL33 18-mer scan, background subtracted, first of two count columns.
[2] abbreviates: STRL33 18-mer scan, background subtracted, second of two count columns.
Setting [3] is: STRL33 amino terminus, background subtracted.
Setting [4] is: Panel E, 9-mers and 12-mers of CD4, empty control 571.
Setting [5] is: Panel C, 15-mers and 18-mers of CD4, empty control 556.
Where [6] appears, read: Panel A, 21-mers of CD4, empty control 515 and 617.
The mark [7] stands for this setting: CXCR4 18-mer scan, background subtracted, empty control 0.
Where [8] appears, read: CXCR4 18-mer scan, empty control 412.
Setting [9] is: Panel F, sequential alanine replacements of CD4 polypeptides, duplicate series, empty control 569.
Setting [10] is: Panel D, 9-mers and 12-mers of CD4, empty control […].
Setting [11] is: Panel B, 15-mers and 18-mers of CD4, empty control 575.

Values joined by “and” are separate entries in the source; they are usually repeats but may differ in a detail not shown here. Identical values can stand only once. Like-named read-outs stand apart in the source and are kept apart here.

In the case of “SSFNDSSQEEHQAFLQFS [STRL33 segment 13-30]”, the “radioactive counts recorded in twenty minutes” value (“radioactive counts recorded” below) under setting [1] is given as 2689.5 counts. The “radioactive counts recorded” value under setting [2] is given as 2757.5 counts. Further, under setting [3], the “Binding Results For Window Length (counts bound-background), 9” value was found to be 243 counts; the “Binding Results For Window Length (counts bound-background), 12” value was found to be 277 counts; the “Binding Results For Window Length (counts bound-background), 15” value turned out to be 902 counts. The “Binding Results For Window Length (counts bound-background), 18” value (STRL33 amino terminus, 18-mer starting at the first residue of the printed sequence, background subtracted) stood at 6038 counts.
For the sequence SSIVYKKEG, the “COUNTS of radiolabeled gp120 retained” value under setting [4] was determined as 515 counts.
The same measure, in the same setting: as for SSIVYKKEGEQV, the figure is 615 counts.
SSIVYKKEGEQVEFS: the “COUNTS of radiolabeled gp120 retained” value under setting [5] is listed as 558 counts.
As for SSIVYKKEGEQVEFSFPL, the “COUNTS of radiolabeled gp120 retained” value under setting [5] worked out at 756 counts.
Regarding SSIVYKKEGEQVEFSFPLAFT, under setting [6], the “COUNTS of radiolabeled gp120 retained” value was 28068 counts.
For SSQEEEQAFLQFSKV, under setting [3], the “Binding Results For Window Length (counts bound-background), 9” value amounted to 287 counts; the “Binding Results For Window Length (counts bound-background), 12” value is recorded as 4455 counts; the “Binding Results For Window Length (counts bound-background), 15” value is 4732 counts.
As to “SSSKSWITFDLKNKEVSVKRV [human CD4 246-266]”, the “number of radioactive decays (counts) counted” value amounted to 1761 counts.
Regarding “STPVQPMALIVLGGVAGLLLF [human CD4 391-411]”, the “number of radioactive decays (counts) counted” value is reported as 2527 counts.
Turning to “SVADLLFVITLPFWAVDA [CXCR4 segment 81-98]”, the “radioactive counts recorded” value stood at 253 counts under setting [7] and 665 counts under setting [8].
For the sequence SVITWVVAVFASLPGIIF, the “Counts per 20′ Average-background” value (background subtracted) came to 46 counts per 20′.
SVYTRSTGEQEISVGL [CCR5 segment 337-]: the “Counts per 20′ Average-background” value (background subtracted) was determined as 47 counts per 20′.
Consider TALLQGQSLTLTLES, for which, under setting [9], the “COUNTS of radiolabeled gp120 retained” value is 6931 counts and 5012 counts.
For the sequence TANSDTHLL, the “COUNTS of radiolabeled gp120 retained” value under setting [10] was determined as 554 counts.
Still for that read-out and setting: the result for TANSDTHLLQGQ reads 549 counts.
Take TANSDTHLLQGQSLT: the “COUNTS of radiolabeled gp120 retained” value under setting [11] was 513 counts.
Still for that read-out and setting: as for TANSDTHLLQGQSLTLTL, the figure is 891 counts.
In the case of TCITVDRFIVVVKATKAY, the “radioactive counts recorded” value runs as follows: under setting [1], 89.5 counts; under setting [2], 346.5 counts.
For the sequence TCSSHFPYSQYQFWKNFQ [CCR5 segment 177-], the “Counts per 20′ Average-background” value (background subtracted) is 367 counts per 20′.
In the case of TCTVLQNQKKVEFKI, under setting [5], the “COUNTS of radiolabeled gp120 retained” value worked out at 510 counts.
Same read-out and setting: the result for TCTVLQNQKKVEFKIDIV reads 571 counts.
In the case of TDIYLLNLAISDLFFLLT [CCR5 segment 65-82], the “Counts per 20′ Average-background” value (background subtracted) was 38 counts per 20′.
“TDKYRLHLSVADLLFVIT [CXCR4 segment 73-90]”: the “radioactive counts recorded” value under setting [7] is on record as 92 counts and the “radioactive counts recorded” value under setting [8] was found to be 504 counts.
In the case of “TEAIAYLRACLNPVLYAF [STRL33 segment 273-290]”, the “radioactive counts recorded” value under setting [1] worked out at 604.5 counts and the “radioactive counts recorded” value under setting [2] was found to be 480.5 counts.
As for “TEEMGSGDYDSMKEPCFR [CXCR4 segment 13-30]”, the “radioactive counts recorded” value under setting [7] is on record as 41 counts and the “radioactive counts recorded” value under setting [8] was found to be 453 counts.
For the sequence TELLQGASLTLTLES, the “COUNTS of radiolabeled gp120 retained” value under setting [9] came out at 4238 counts.
For the sequence TGLYFIGFFSGIFFIILL, where the note is “background subtracted”, the “Counts per 20′ Average-background” value worked out at 80 counts per 20′.
Consider TGSGELWWQ, for which the “COUNTS of radiolabeled gp120 retained” value under setting [4] came out at 507 counts.
As to THALQGQSLTLTLES, the “COUNTS of radiolabeled gp120 retained” value under setting [9] is 7683 counts and 5059 counts.
Turning to THLAQGQSLTLTLES, the “COUNTS of radiolabeled gp120 retained” value under setting [9] is 7701 counts and 5120 counts.
Same read-out and setting: as for THLLAGQSLTLTLES, the figure is 4578 counts and 2956 counts.
Regarding THLLQAQSLTLTLES, under setting [9], the “COUNTS of radiolabeled gp120 retained” value is 8471 counts and 6393 counts.
As to THLLQGASLTLTLES, the “COUNTS of radiolabeled gp120 retained” value under setting [9] was 1933 counts.
Regarding THLLQGQALTLTLES, under setting [9], the “COUNTS of radiolabeled gp120 retained” value was 8659 counts and 5151 counts.
As for THLLQGQSL, under setting [10], the “COUNTS of radiolabeled gp120 retained” value is listed as 512 counts.
With THLLQGQSLALTLES, under setting [9], the “COUNTS of radiolabeled gp120 retained” value was 8158 counts and 4749 counts.
Regarding THLLQGQSLTLALES, the “COUNTS of radiolabeled gp120 retained” value under setting [9] was 11699 counts and 8147 counts.
As to THLLQGQSLTLT, the “COUNTS of radiolabeled gp120 retained” value under setting [10] stood at 646 counts.
Turning to THLLQGQSLTLTAES, under setting [9], the “COUNTS of radiolabeled gp120 retained” value was 862 counts and 797 counts.
Same read-out and setting: as for THLLQGQSLTLTLAS, the figure is 2596 counts and 2193 counts; as for THLLQGQSLTLTLEA, 5849 counts and 7984 counts.
For the sequence THLLQGQSLTLTLES, the “COUNTS of radiolabeled gp120 retained” value was 1874 counts under setting [11]; 7756 counts and 6545 counts and 4787 counts and 5947 counts under setting [9]; 10850 counts and 9756 counts (Panel G, alanine replacements and serial truncations (Z) of CD4 polypeptides, empty control 580).
In the case of “TIMVTEAIAYLRACLNPV [STRL33 segment 269-286]”, the “radioactive counts recorded” value reads like this: under setting [1], 140.5 counts; under setting [2], 272.5 counts.
Take TLGFFLPLLTMIVCYSVI: the “radioactive counts recorded” value is given as 2387.5 counts under setting [1] and 479.5 counts under setting [2].
In the same order, the values of TLLHAGGFQKHRSLKIIF are 1041.5 counts and 999.5 counts.
With TVEKLTGSG, the “COUNTS of radiolabeled gp120 retained” value under setting [4] came to 487 counts.
For TVEKLTGSGELW, the “COUNTS of radiolabeled gp120 retained” value under setting [4] came out at 573 counts.
Consider TVEKLTGSGELWWQA, for which the “COUNTS of radiolabeled gp120 retained” value under setting [5] came to 550 counts.
As to TVILILAFFACWLPYYIG, the “radioactive counts recorded” value reads like this: under setting [7], 323 counts; under setting [8], 735 counts.
In the case of TVLQNQKKV, the “COUNTS of radiolabeled gp120 retained” value under setting [4] was found to be 534 counts.
Consider TVLQNQKKVEFKIDI, for which the “COUNTS of radiolabeled gp120 retained” value under setting [5] amounted to 587 counts.
Still for that read-out and setting: the result for TVLQNQKKVEFKIDIVVL reads 655 counts.
For TVNLYSSVLILAFISLDR, the “radioactive counts recorded” value by setting is: under setting [7], 242 counts; under setting [8], 654 counts.
Take TVTFGVVTSVITWVVAVF: where the note is “background subtracted”, the “Counts per 20′ Average-background” value is reported as −25 counts per 20′.
With “TVVLATQMTLGFFLPLLT [STRL33 segment 189-206]”, the “radioactive counts recorded” value was 2327.5 counts under setting [1] and 2389.5 counts under setting [2].
On to TYICEVEDQ, for which, under setting [10], the “COUNTS of radiolabeled gp120 retained” value is recorded as 805 counts.
TYICEVEDQKEE: the “COUNTS of radiolabeled gp120 retained” value under setting [10] is on record as 818 counts.
As to TYICEVEDQKEEVQL, the “COUNTS of radiolabeled gp120 retained” value under setting [11] amounted to 956 counts.
Still for that read-out and setting: the result for TYICEVEDQKEEVQLLVF reads 3794 counts.
As to “VCTLPFWAYAGIHEWVFG [STRL33 segment 81-98]”, the “radioactive counts recorded” value runs as follows: under setting [1], 1819.5 counts; under setting [2], 1754.5 counts.
Consider “VCYSVIIKTLLHAGGFQK [STRL33 segment 209-226]”, for which the “radioactive counts recorded” value runs as follows: under setting [1], 1334.5 counts; under setting [2], 1143.5 counts.
In the same order, the values of VDRFIVVVKATKAYNQQA are 103.5 counts and 53.5 counts.
Consider VEDQKEEVQ, for which the “COUNTS of radiolabeled gp120 retained” value under setting [10] is recorded as 521 counts.
For VEDQKEEVQLLV, under setting [10], the “COUNTS of radiolabeled gp120 retained” value was found to be 657 counts.
With VEDQKEEVQLLVFGL, the “COUNTS of radiolabeled gp120 retained” value under setting [11] is 3816 counts.
On the same count and under the same terms, the result for VEDQKEEVQLLVFGLTAN reads 3913 counts.
For VEFKIDIVV, the “COUNTS of radiolabeled gp120 retained” value under setting [4] is reported as 548 counts.
As for VEFKIDIVVLAF, under setting [4], the “COUNTS of radiolabeled gp120 retained” value worked out at 681 counts.
Turning to VEFKIDIVVLAFQKA, the “COUNTS of radiolabeled gp120 retained” value under setting [5] was determined as 1005 counts.
On the same count and under the same terms, as for VEFKIDIVVLAFQKASSI, the figure is 819 counts.
As to VEFKIDIVVLAFQKASSIVYK, under setting [6], the “COUNTS of radiolabeled gp120 retained” value is reported as 725 counts.
Take VEFSFPLAF: the “COUNTS of radiolabeled gp120 retained” value under setting [4] was 1064 counts.
Take VEFSFPLAFTVE: the “COUNTS of radiolabeled gp120 retained” value under setting [4] is 518 counts.
On to VEFSFPLAFTVEKLT, for which the “COUNTS of radiolabeled gp120 retained” value under setting [5] was 899 counts.
Turning to VEFSFPLAFTVEKLTGSG, the “COUNTS of radiolabeled gp120 retained” value under setting [5] is 533 counts.
Consider VEFSFPLAFTVEKLTGSGELW, for which the “COUNTS of radiolabeled gp120 retained” value under setting [6] was determined as 633 counts.
Regarding VEKLTGSGE, the “COUNTS of radiolabeled gp120 retained” value under setting [4] amounted to 585 counts.
As for VEKLTGSGELWW, the “COUNTS of radiolabeled gp120 retained” value under setting [4] came to 477 counts.
As for VEKLTGSGELWWQAE, the “COUNTS of radiolabeled gp120 retained” value under setting [5] stood at 735 counts.
Regarding VFASLPGIIFTRSQKEGL [CCR5 segment 157-], where the note is “background subtracted”, the “Counts per 20′ Average-background” value came out at 54 counts per 20′.
As to VFGLTANSD, the “COUNTS of radiolabeled gp120 retained” value under setting [10] amounted to 549 counts.
For the sequence VFGLTANSDTHL, the “COUNTS of radiolabeled gp120 retained” value under setting [10] turned out to be 548 counts.
Regarding VFGLTANSDTHLLQG, under setting [11], the “COUNTS of radiolabeled gp120 retained” value worked out at 532 counts.
As for VFGLTANSDTHLLQGQSL, the “COUNTS of radiolabeled gp120 retained” value under setting [11] was found to be 531 counts.
